Assay results reported in ChEMBL document CHEMBL4004849, “Tetrazolylmethyl quinolines: Design, docking studies, synthesis, anticancer and antifungal analyses” (2017).
Converted amounts (≈) assume the structure as drawn. The source made the active and inactive calls. The calls are words filed in the database; no cut-off is given here.

Columns and labels:
Assay type in all cases: functional
HL-60(TB) = test: Growth inhibition of human HL-60(TB) cells at 10^-5 M incubated for 48 hrs by sulforhodamine B assay relative to control
MOLT-4 = test: Growth inhibition of human MOLT4 cells at 10^-5 M incubated for 48 hrs by sulforhodamine B assay relative to control
A549 = test: Growth inhibition of human A549/ATCC cells at 10^-5 M incubated for 48 hrs by sulforhodamine B assay relative to control
EKVX = test: Growth inhibition of human EKVX cells at 10^-5 M incubated for 48 hrs by sulforhodamine B assay relative to control
NCI-H23 = test: Growth inhibition of human NCI-H23 cells at 10^-5 M incubated for 48 hrs by sulforhodamine B assay relative to control
NCI-H460 = test: Growth inhibition of human NCI-H460 cells at 10^-5 M incubated for 48 hrs by sulforhodamine B assay relative to control
NCI-H522 = test: Growth inhibition of human NCI-H522 cells at 10^-5 M incubated for 48 hrs by sulforhodamine B assay relative to control
COLO 205 = test: Growth inhibition of human COLO205 cells at 10^-5 M incubated for 48 hrs by sulforhodamine B assay relative to control
HCC 2998 = test: Growth inhibition of human HCC2998 cells at 10^-5 M incubated for 48 hrs by sulforhodamine B assay relative to control
HCT-116 = test: Growth inhibition of human HCT116 cells at 10^-5 M incubated for 48 hrs by sulforhodamine B assay relative to control
HCT-15 = test: Growth inhibition of human HCT15 cells at 10^-5 M incubated for 48 hrs by sulforhodamine B assay relative to control
KM12 = test: Growth inhibition of human KM12 cells at 10^-5 M incubated for 48 hrs by sulforhodamine B assay relative to control
SW-620 = test: Growth inhibition of human SW620 cells at 10^-5 M incubated for 48 hrs by sulforhodamine B assay relative to control
SF-295 = test: Growth inhibition of human SF295 cells at 10^-5 M incubated for 48 hrs by sulforhodamine B assay relative to control
SF-539 = test: Growth inhibition of human SF539 cells at 10^-5 M incubated for 48 hrs by sulforhodamine B assay relative to control
SNB-19 = test: Growth inhibition of human SNB19 cells at 10^-5 M incubated for 48 hrs by sulforhodamine B assay relative to control
SNB-75 = test: Growth inhibition of human SNB75 cells at 10^-5 M incubated for 48 hrs by sulforhodamine B assay relative to control
U-251 = test: Growth inhibition of human U251 cells at 10^-5 M incubated for 48 hrs by sulforhodamine B assay relative to control
LOX IMVI = test: Growth inhibition of human LOXIMVI cells at 10^-5 M incubated for 48 hrs by sulforhodamine B assay relative to control
M14 = test: Growth inhibition of human M14 cells at 10^-5 M incubated for 48 hrs by sulforhodamine B assay relative to control
SK-MEL-2 = test: Growth inhibition of human SK-MEL-2 cells at 10^-5 M incubated for 48 hrs by sulforhodamine B assay relative to control
SK-MEL-28 = test: Growth inhibition of human SK-MEL-28 cells at 10^-5 M incubated for 48 hrs by sulforhodamine B assay relative to control
SK-MEL-5 = test: Growth inhibition of human SK-MEL-5 cells at 10^-5 M incubated for 48 hrs by sulforhodamine B assay relative to control
UACC-257 = test: Growth inhibition of human UACC257 cells at 10^-5 M incubated for 48 hrs by sulforhodamine B assay relative to control
UACC-62 = test: Growth inhibition of human UACC62 cells at 10^-5 M incubated for 48 hrs by sulforhodamine B assay relative to control
IGROV-1 = test: Growth inhibition of human IGROV1 cells at 10^-5 M incubated for 48 hrs by sulforhodamine B assay relative to control
OVCAR-4 = test: Growth inhibition of human OVCAR4 cells at 10^-5 M incubated for 48 hrs by sulforhodamine B assay relative to control
OVCAR-5 = test: Growth inhibition of human OVCAR5 cells at 10^-5 M incubated for 48 hrs by sulforhodamine B assay relative to control
OVCAR-8 = test: Growth inhibition of human OVCAR8 cells at 10^-5 M incubated for 48 hrs by sulforhodamine B assay relative to control
NCI/ADR-RES = test: Growth inhibition of human NCI-ADR-RES cells at 10^-5 M incubated for 48 hrs by sulforhodamine B assay relative to control
786-0 = test: Growth inhibition of human 786-0 cells at 10^-5 M incubated for 48 hrs by sulforhodamine B assay relative to control
ACHN = test: Growth inhibition of human ACHN cells at 10^-5 M incubated for 48 hrs by sulforhodamine B assay relative to control
RXF 393 = test: Growth inhibition of human RXF393 cells at 10^-5 M incubated for 48 hrs by sulforhodamine B assay relative to control
TK-10 = test: Growth inhibition of human TK10 cells at 10^-5 M incubated for 48 hrs by sulforhodamine B assay relative to control
UO-31 = test: Growth inhibition of human UO31 cells at 10^-5 M incubated for 48 hrs by sulforhodamine B assay relative to control
MCF7 = test: Growth inhibition of human MCF7 cells at 10^-5 M incubated for 48 hrs by sulforhodamine B assay relative to control
MDA-MB-231 = test: Growth inhibition of human MDA-MB-231/ATCC cells at 10^-5 M incubated for 48 hrs by sulforhodamine B assay relative to control
Hs-578T = test: Growth inhibition of human Hs 578T cells at 10^-5 M incubated for 48 hrs by sulforhodamine B assay relative to control
BT-549 = test: Growth inhibition of human BT549 cells at 10^-5 M incubated for 48 hrs by sulforhodamine B assay relative to control
T47D = test: Growth inhibition of human T47D cells at 10^-5 M incubated for 48 hrs by sulforhodamine B assay relative to control
MDA-MB-468 = test: Growth inhibition of human MDA-MB-468 cells at 10^-5 M incubated for 48 hrs by sulforhodamine B assay relative to control
Candida albicans [1] = test: Antifungal activity against Candida albicans at 100 ug/ml by disc diffusion method; conditions: read-out: IZ
Candida albicans [2] = test: Antifungal activity against Candida albicans after 24 hrs by serial dilution method
Aspergillus fumigatus = test: Antifungal activity against Aspergillus fumigatus after 24 hrs by serial dilution method

SMILES: Cc1ccc2nc(Cl)c(Cn3nnnc3Cc3ccccc3)cc2c1
- growth inhibition (GI) (HL-60(TB)): Active
- growth inhibition (GI) (MOLT-4): Active
- growth inhibition (GI) (A549): Active
- growth inhibition (GI) (EKVX): Active
- growth inhibition (GI) (NCI-H23): Active
- growth inhibition (GI) (NCI-H460): Active
- growth inhibition (GI) (NCI-H522): Active
- growth inhibition (GI) (COLO 205): Active
- growth inhibition (GI) (HCC 2998): Active
- growth inhibition (GI) (HCT-116): Active
- growth inhibition (GI) (HCT-15): Active
- growth inhibition (GI) (KM12): Active
- growth inhibition (GI) (SW-620): Active
- growth inhibition (GI) (SF-295): Active
- growth inhibition (GI) (SF-539): Active
- growth inhibition (GI) (SNB-19): Active
- growth inhibition (GI) (SNB-75): Active
- growth inhibition (GI) (U-251): Active
- growth inhibition (GI) (LOX IMVI): Active
- growth inhibition (GI) (M14): Active
- growth inhibition (GI) (SK-MEL-2): Active
- growth inhibition (GI) (SK-MEL-28): Active
- growth inhibition (GI) (SK-MEL-5): Active
- growth inhibition (GI) (UACC-257): Active
- growth inhibition (GI) (UACC-62): Active
- growth inhibition (GI) (IGROV-1): Active
- growth inhibition (GI) (OVCAR-4): Active
- growth inhibition (GI) (OVCAR-5): Active
- growth inhibition (GI) (OVCAR-8): Active
- growth inhibition (GI) (NCI/ADR-RES): Active
- growth inhibition (GI) (786-0): Active
- growth inhibition (GI) (ACHN): Active
- growth inhibition (GI) (RXF 393): Active
- growth inhibition (GI) (TK-10): Active
- growth inhibition (GI) (UO-31): Active
- growth inhibition (GI) (MCF7): Active
- growth inhibition (GI) (MDA-MB-231): Active
- growth inhibition (GI) (Hs-578T): Active
- growth inhibition (GI) (BT-549): Active
- growth inhibition (GI) (T47D): Active
- growth inhibition (GI) (MDA-MB-468): Active
- zone of inhibition at 100 µg/mL (Candida albicans [1]): 10 mm
- MIC (Candida albicans [2]): 25 µg/mL (≈ 71.5 µM)
- MIC (Aspergillus fumigatus): 25 µg/mL (≈ 71.5 µM)

SMILES: Clc1nc2ccccc2cc1Cn1nnnc1CSc1ccccc1
- growth inhibition (GI) (HL-60(TB)): Active
- growth inhibition (GI) (MOLT-4): Active
- growth inhibition (GI) (A549): Active
- growth inhibition (GI) (EKVX): Active
- growth inhibition (GI) (NCI-H23): Active
- growth inhibition (GI) (NCI-H460): Active
- growth inhibition (GI) (NCI-H522): Active
- growth inhibition (GI) (COLO 205): Active
- growth inhibition (GI) (HCC 2998): Active
- growth inhibition (GI) (HCT-116): Active
- growth inhibition (GI) (HCT-15): Active
- growth inhibition (GI) (KM12): Active
- growth inhibition (GI) (SW-620): Active
- growth inhibition (GI) (SF-295): Active
- growth inhibition (GI) (SF-539): Active
- growth inhibition (GI) (SNB-19): Active
- growth inhibition (GI) (SNB-75): Active
- growth inhibition (GI) (U-251): Active
- growth inhibition (GI) (LOX IMVI): Active
- growth inhibition (GI) (M14): Active
- growth inhibition (GI) (SK-MEL-2): Active
- growth inhibition (GI) (SK-MEL-28): Active
- growth inhibition (GI) (SK-MEL-5): Active
- growth inhibition (GI) (UACC-257): Active
- growth inhibition (GI) (UACC-62): Active
- growth inhibition (GI) (IGROV-1): Active
- growth inhibition (GI) (OVCAR-4): Active
- growth inhibition (GI) (OVCAR-5): Active
- growth inhibition (GI) (OVCAR-8): Active
- growth inhibition (GI) (NCI/ADR-RES): Active
- growth inhibition (GI) (786-0): Active
- growth inhibition (GI) (ACHN): Active
- growth inhibition (GI) (RXF 393): Active
- growth inhibition (GI) (TK-10): Active
- growth inhibition (GI) (UO-31): Active
- growth inhibition (GI) (MCF7): Active
- growth inhibition (GI) (MDA-MB-231): Active
- growth inhibition (GI) (Hs-578T): Active
- growth inhibition (GI) (BT-549): Active
- growth inhibition (GI) (T47D): Active
- growth inhibition (GI) (MDA-MB-468): Active
- zone of inhibition at 100 µg/mL (Candida albicans [1]): 12 mm
- MIC (Candida albicans [2]): 10 µg/mL (≈ 27.2 µM)
- MIC (Aspergillus fumigatus): 25 µg/mL (≈ 68 µM)
